From patent publication US20080234262A1 (Wyeth, priority 2007, published 2008)

Tests used:
PI3K = PI3K (Homo sapiens, UniProt P42336); test: Fluorescence polarization assay for PI3K; assay type: biochemical; conditions: PI3Kα; read-out: PI3Kα IC50;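 further: PI3K kinase reaction on PIP2 with ATP, 30-60 min, product sensed by GST-GRP with red probe in fluorescence polarization (mP), controls without enzyme and at zero time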
prostate line LNCap = test: In vitro cell culture growth assay (MTS), LNCap; assay type: cell-based, human; conditions: Homo sapiens, LNCaP, 72 h, LNCap cells, three days after drug treatment
breast line MDA468 = test: In vitro cell culture growth assay (MTS), MDA468; assay type: cell-based, human; conditions: Homo sapiens, 72 h, MDA468 cells, three days after drug treatment
Outline: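 MDA468 or LNCap cells received inhibitors one day after plating and were grown for three days. Viable cell density read by MTS conversion, absorbance 490 nm, expressed as percent of control growth versus vehicle-treated cells on the same plate.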

Sequence of PI3K (P42336 whole entry): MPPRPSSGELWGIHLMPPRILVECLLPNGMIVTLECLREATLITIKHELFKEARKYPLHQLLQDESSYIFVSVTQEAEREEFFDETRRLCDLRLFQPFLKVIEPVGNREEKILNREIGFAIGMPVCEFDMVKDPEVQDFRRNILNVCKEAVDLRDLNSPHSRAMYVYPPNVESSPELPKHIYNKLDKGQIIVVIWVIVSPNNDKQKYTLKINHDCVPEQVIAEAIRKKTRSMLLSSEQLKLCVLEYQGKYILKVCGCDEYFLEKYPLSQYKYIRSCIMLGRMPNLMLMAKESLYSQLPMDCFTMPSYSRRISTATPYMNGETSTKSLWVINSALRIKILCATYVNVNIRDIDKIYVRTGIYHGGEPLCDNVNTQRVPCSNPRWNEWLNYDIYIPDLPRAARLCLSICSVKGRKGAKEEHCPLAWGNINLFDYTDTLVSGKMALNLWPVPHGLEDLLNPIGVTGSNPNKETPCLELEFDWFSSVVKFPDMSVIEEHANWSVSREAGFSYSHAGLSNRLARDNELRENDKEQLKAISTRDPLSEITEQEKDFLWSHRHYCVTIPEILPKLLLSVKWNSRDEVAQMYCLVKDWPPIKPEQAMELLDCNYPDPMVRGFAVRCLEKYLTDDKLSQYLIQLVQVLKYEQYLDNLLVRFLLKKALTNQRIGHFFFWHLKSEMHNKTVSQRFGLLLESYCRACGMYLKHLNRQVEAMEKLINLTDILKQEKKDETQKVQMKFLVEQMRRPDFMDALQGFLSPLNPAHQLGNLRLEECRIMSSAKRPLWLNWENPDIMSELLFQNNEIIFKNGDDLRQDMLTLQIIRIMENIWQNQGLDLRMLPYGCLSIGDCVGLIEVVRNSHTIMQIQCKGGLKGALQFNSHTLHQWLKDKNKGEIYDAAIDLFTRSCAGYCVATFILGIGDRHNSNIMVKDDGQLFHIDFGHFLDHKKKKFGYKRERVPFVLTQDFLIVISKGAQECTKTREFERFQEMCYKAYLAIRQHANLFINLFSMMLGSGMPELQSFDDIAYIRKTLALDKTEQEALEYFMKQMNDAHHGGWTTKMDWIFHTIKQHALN
Sequence of PI3K (P27986 whole entry partner): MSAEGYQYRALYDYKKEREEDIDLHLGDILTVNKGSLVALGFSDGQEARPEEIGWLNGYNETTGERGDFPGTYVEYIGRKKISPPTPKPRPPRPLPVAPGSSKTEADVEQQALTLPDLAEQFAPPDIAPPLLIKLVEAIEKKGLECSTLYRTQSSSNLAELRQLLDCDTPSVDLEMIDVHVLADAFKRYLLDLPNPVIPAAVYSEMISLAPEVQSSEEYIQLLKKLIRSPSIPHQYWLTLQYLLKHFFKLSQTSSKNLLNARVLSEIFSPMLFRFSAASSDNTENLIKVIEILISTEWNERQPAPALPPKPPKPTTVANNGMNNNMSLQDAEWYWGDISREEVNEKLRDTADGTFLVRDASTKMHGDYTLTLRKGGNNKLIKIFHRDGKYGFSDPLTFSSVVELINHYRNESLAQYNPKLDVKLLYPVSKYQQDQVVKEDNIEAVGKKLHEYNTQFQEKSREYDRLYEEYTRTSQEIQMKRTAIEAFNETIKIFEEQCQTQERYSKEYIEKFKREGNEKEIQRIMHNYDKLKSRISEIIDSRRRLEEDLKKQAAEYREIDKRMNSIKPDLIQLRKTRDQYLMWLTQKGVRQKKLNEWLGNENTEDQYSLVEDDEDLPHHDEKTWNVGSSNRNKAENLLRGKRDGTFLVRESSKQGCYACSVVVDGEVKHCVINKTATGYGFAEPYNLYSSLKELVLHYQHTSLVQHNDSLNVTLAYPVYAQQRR

| IC50 (PI3K) [nM] | IC50 (prostate line LNCap) [nM] | Structure (SMILES) | IC50 (breast line MDA468) [nM] |
| --- | --- | --- | --- |
| 132 | 3200 | COC(=O)N1CCC(n2ncc3c(N4CCOCC4)nc(-c4ccc(NC(=O)OCCN)cc4)nc32)CC1 [Compound 903, methyl 4-[6-(4-{[(2-aminoethoxy)carbonyl]amino}phenyl)-4-morpholin-4-yl-1H-pyrazolo[3,4-d]pyrimidin-1-yl]piperidine-1-carboxylate] | 8000 |
| 4300 | 7500 | CC(C)(C)OC(=O)N1CCC[C@@H](n2ncc3c(N4CCOCC4)nc(-c4ccc(N)cc4)nc32)C1 [Compound 871, tert-butyl (3R)-3-[6-(4-aminophenyl)-4-morpholin-4-yl-1H-pyrazolo[3,4-d]pyrimidin-1-yl]piperidine-1-carboxylate] | 2300 |
| 100 | 250 | CNC(=O)Nc1ccc(-c2nc(N3CCOCC3)c3cnn(C4CCN(C(=O)c5ccc(F)nc5)CC4)c3n2)cc1 [Example 421, 1-[4-(1-{1-[(6-fluoropyridin-3-yl)carbonyl]piperidin-4-yl}-4-morpholin-4-yl-1H-pyrazolo[3,4-d]pyrimidin-6-yl)phenyl]-3-methylurea] | 300 |
| 106 | 370 | CCCCNC(=O)Nc1ccc(-c2nc(N3CCOCC3)c3cnn(C4CCN(Cc5cccnc5)CC4)c3n2)cc1 [Example 212, 1-Butyl-3-(4-{4-morpholin-4-yl-1-[1-(pyridin-3-ylmethyl)piperidin-4-yl]-1H-pyrazolo[3,4-d]pyrimidin-6-yl}phenyl)urea] | 1400 |
| 916 | 890 | CCNC(=NC#N)Nc1ccc(-c2nc(N3CCOCC3)c3cnn(C4CCN(Cc5cccnc5)CC4)c3n2)cc1 [Example 408, 2-cyano-1-ethyl-3-(4-{4-morpholin-4-yl-1-[1-(pyridin-3-ylmethyl)piperidin-4-yl]-1H-pyrazolo[3,4-d]pyrimidin-6-yl}phenyl)guanidine] | 3200 |
| 22 | < 27 | CCCOC(=O)N1CCC(n2ncc3c(N4CCOCC4)nc(-c4ccc(NC(=O)Nc5ccncc5)cc4)nc32)CC1 [Compound 851, propyl 4-(4-morpholin-4-yl-6-{4-[(pyridin-4-ylcarbamoyl)amino]phenyl}-1H-pyrazolo[3,4-d]pyrimidin-1-yl)piperidine-1-carboxylate] | 110 |
| 363 | 800 | N#CNC(=O)Nc1ccc(-c2nc(N3CCOCC3)c3cnn(C4CCN(Cc5cccnc5)CC4)c3n2)cc1 [Example 409, N′-cyano-N-(4-{4-morpholin-4-yl-1-[1-(pyridin-3-ylmethyl)piperidin-4-yl]-1H-pyrazolo[3,4-d]pyrimidin-6-yl}phenyl)carbamimidic acid] | 2500 |
| 93 | 27 | CNC(=O)Nc1ccc(-c2nc(N3CCOCC3)c3cnn(C4CCN(C(=O)c5ccccc5C)CC4)c3n2)cc1 [Example 356, 1-methyl-3-(4-{1-[1-(2-methylbenzoyl)piperidin-4-yl]-4-morpholin-4-yl-1H-pyrazolo[3,4-d]pyrimidin-6-yl}phenyl)urea] | 100 |

Further lines, the compound ahead of its results:

| Structure (SMILES) | IC50 (PI3K) [nM] | IC50 (prostate line LNCap) [nM] | IC50 (breast line MDA468) [nM] |
| --- | --- | --- | --- |
| O=C(Nc1ccc(-c2nc(N3CCOCC3)c3cnn(C4CCN(CC(F)(F)F)CC4)c3n2)cc1)NC1CC1 [Compound 788, 1-cyclopropyl-3-(4-{4-morpholin-4-yl-1-[1-(2,2,2-trifluoroethyl)piperidin-4-yl]-1H-pyrazolo[3,4-d]pyrimidin-6-yl}phenyl)urea] | 734 | 120 | 1600 |
| NS(=O)(=O)c1ccc(-c2nc(N3CCOCC3)c3cnn(C4CCN(Cc5ccccc5)CC4)c3n2)cc1 [Compound 85] | 2280 | 8000 | 9000 |
| c1ccc(CCN2CCC(n3ncc4c(N5CCOCC5)nc(-c5ccc6[nH]ccc6c5)nc43)CC2)cc1 [Compound 489, 6-(1H-indol-5-yl)-4-morpholin-4-yl-1-[1-(2-phenylethyl)piperidin-4-yl]-1H-pyrazolo[3,4-d]pyrimidine] | 3090 | 780 | 3100 |
| O=C(NCCF)Nc1ccc(-c2nc(N3CCOCC3)c3cnn(C4CCN(Cc5cccnc5)CC4)c3n2)cc1F [Compound 619, 1-(2-fluoroethyl)-3-(2-fluoro-4-{4-morpholin-4-yl-1-[1-(pyridin-3-ylmethyl)piperidin-4-yl]-1H-pyrazolo[3,4-d]pyrimidin-6-yl}phenyl)urea] | 619 | 140 | 1300 |
| c1ccc(CN2CCC(n3ncc4c(N5CCOCC5)nc(-c5cnc6ccccc6c5)nc43)CC2)cc1 [Compound 230, 3-[1-(1-benzylpiperidin-4-yl)-4-morpholin-4-yl-1H-pyrazolo[3,4-d]pyrimidin-6-yl]quinoline] | 6000 | 60000 | 22000 |
| O=C1CCCN1CCn1ncc2c(N3CCOCC3)nc(-c3cccc(O)c3)nc21 [Compound 164] | 230 | 5700 | 20000 |
| Oc1cccc(-c2nc(N3CCOCC3)c3cnn(CCN4CCOCC4)c3n2)c1 [Compound 165] | 176 | 3000 | 12000 |
| CC(C)C(=O)N1CCC(n2ncc3c(N4CCOCC4)nc(-c4ccc(NC(=O)Nc5cccnc5)cc4)nc32)CC1 [Compound 828, 1-{4-[1-(1-isobutyrylpiperidin-4-yl)-4-morpholin-4-yl-1H-pyrazolo[3,4-d]pyrimidin-6-yl]phenyl}-3-pyridin-3-ylurea] | 50 | 120 | 330 |
| O=[N+]([O-])c1ccc(-c2nc(N3CCOCC3)c3cnn(-c4ccccc4)c3n2)cc1 [Compound 119] | 1160 | 60000 | 60000 |
| CNC(=O)Nc1ccc(-c2nc(N3CCOCC3)c3cnn(C4CCN(C(=O)Nc5cccnc5)CC4)c3n2)cc1 [Compound 579, 4-(6-{4-[(methylcarbamoyl)amino]phenyl}-4-morpholin-4-yl-1H-pyrazolo[3,4-d]pyrimidin-1-yl)-N-pyridin-3-ylpiperidine-1-carboxamide] | 30 | 3000 | 2500 |
| Nc1ccc(-c2nc(N3CCOCC3)c3cnn(C4CCN(Cc5ccccc5)CC4)c3n2)cc1F [Compound 347, 4-[1-(1-benzylpiperidin-4-yl)-4-morpholin-4-yl-1H-pyrazolo[3,4-d]pyrimidin-6-yl]-2-fluoroaniline] | 1650 | 2000 | 4000 |
| CCSC(=O)N1CCC(n2ncc3c(N4CCOCC4)nc(-c4ccc(NC(=O)OC)cc4)nc32)CC1 [Compound 807, S-ethyl 4-(6-{4-[(methoxycarbonyl)amino]phenyl}-4-morpholin-4-yl-1H-pyrazolo[3,4-d]pyrimidin-1-yl)piperidine-1-carbothioate] | 4450 | 1400 | 8000 |
| CNC(=O)Nc1ccc(-c2nc(N3CCOCC3)c3cnn(C4CCN(C(=O)c5ccccc5C)CC4)c3n2)cc1 [Compound 602, 1-methyl-3-(4-{1-[1-(2-methylbenzoyl)piperidin-4-yl]-4-morpholin-4-yl-1H-pyrazolo[3,4-d]pyrimidin-6-yl}phenyl)urea] | 93 | < 27 | 70 |
